Assay results taken from patent publication US20240158370A1, “CK1 alpha AND DUAL CK1 alpha / GSPT1 DEGRADING COMPOUNDS” (Innovo Therapeutics, Inc., priority 2022, published 2024).

How the values were obtained:
CK1α = target: T1, CK1α (Homo sapiens, UniProt P48729+Q96SW2); test: HiBiT degradation assay, CK1α, Procedure A; type: cell-based; settings: six hours
T1 construct: CSNK1A1-HiBit KI HEK293(LgBit) Cells; host or cells: HEK293(LgBit) knock-in cells
How it was run: (§1)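 DC50 and Ymin (% remaining) were derived by four-parameter fitting of luminescence data. The data come from a six-hour, 37° C compound exposure of cells in DMEM/10% FBS over a ten-point range, 10 μM to 0.005 μM, followed by Nano-Glo HiBiT lytic detection.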

GSPT1 = GSPT1 (Homo sapiens, UniProt P15170+Q96SW2); test: HiBiT degradation assay, GSPT1, Procedure A; type: cell-based; design: HiBit-GSPT1 KI HEK293(LgBit) Cells; host or cells: HEK293(LgBit) knock-in cells; settings: six hours
Sequence of GSPT1 (P15170 whole entry): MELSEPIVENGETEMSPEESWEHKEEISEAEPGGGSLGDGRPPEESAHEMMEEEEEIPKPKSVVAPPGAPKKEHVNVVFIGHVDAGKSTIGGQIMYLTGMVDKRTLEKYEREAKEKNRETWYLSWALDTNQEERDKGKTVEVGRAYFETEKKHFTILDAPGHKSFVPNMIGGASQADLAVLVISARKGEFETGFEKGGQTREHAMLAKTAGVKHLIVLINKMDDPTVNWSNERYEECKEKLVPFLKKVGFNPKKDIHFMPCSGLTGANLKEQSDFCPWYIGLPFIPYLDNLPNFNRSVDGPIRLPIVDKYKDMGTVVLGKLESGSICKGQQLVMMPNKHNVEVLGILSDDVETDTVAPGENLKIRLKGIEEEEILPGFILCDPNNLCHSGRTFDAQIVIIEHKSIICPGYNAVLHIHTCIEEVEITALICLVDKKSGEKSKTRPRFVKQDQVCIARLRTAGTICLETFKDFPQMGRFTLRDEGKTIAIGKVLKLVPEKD
Sequence of GSPT1 (Q96SW2 whole entry): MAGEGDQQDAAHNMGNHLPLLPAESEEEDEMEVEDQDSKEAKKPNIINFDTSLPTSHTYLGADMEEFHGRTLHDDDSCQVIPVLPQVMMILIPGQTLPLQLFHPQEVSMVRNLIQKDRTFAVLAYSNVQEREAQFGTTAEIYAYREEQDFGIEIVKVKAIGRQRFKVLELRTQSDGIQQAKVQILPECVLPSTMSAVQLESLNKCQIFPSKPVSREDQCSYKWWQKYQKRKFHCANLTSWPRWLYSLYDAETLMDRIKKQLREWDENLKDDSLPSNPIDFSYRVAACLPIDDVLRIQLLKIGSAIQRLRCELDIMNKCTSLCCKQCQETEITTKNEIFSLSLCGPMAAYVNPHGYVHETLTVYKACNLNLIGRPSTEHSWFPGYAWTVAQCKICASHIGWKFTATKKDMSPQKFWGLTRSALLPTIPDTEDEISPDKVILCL
Sequence of GSPT1 (Q16531 whole entry partner): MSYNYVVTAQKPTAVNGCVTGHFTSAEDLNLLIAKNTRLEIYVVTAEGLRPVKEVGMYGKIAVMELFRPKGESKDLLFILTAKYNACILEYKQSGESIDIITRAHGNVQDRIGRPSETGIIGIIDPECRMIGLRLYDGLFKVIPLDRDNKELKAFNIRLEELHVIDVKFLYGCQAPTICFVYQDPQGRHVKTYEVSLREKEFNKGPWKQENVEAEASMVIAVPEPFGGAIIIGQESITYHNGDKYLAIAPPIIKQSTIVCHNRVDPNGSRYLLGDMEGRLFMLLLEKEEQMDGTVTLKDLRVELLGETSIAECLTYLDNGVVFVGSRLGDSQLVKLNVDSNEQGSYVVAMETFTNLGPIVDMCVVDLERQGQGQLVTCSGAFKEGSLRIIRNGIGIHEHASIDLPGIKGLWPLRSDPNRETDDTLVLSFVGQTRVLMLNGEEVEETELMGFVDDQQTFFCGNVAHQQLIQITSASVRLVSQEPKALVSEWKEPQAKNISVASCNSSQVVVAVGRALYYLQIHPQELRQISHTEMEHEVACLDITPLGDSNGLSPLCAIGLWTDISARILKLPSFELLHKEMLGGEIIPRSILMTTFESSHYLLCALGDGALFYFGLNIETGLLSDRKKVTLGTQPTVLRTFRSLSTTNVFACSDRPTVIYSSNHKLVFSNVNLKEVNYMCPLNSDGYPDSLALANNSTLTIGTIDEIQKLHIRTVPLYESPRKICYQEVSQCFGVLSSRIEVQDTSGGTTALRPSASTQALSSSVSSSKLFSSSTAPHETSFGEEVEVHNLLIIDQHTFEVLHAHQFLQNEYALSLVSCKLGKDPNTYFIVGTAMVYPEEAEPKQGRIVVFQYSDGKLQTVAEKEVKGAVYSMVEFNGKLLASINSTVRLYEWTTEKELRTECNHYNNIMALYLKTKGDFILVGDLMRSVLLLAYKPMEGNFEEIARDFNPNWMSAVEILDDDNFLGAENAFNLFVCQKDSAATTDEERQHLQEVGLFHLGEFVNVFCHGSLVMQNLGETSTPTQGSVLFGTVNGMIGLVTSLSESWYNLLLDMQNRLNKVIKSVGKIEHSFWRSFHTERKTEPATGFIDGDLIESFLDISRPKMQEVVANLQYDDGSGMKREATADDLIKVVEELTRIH
How it was run: as §1

T1 sequence (P48729 whole entry): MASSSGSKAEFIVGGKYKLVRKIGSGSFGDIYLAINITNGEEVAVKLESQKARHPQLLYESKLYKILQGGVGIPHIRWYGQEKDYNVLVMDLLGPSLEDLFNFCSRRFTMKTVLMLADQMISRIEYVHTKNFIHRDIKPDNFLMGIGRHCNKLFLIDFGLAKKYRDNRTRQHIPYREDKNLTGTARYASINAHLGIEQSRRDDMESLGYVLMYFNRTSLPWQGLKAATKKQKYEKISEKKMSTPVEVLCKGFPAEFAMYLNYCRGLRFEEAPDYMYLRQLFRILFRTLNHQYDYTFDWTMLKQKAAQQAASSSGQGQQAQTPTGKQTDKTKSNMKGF
T1 sequence (Q96SW2 whole entry): as the sequence (Q96SW2 whole entry) above
T1 sequence (Q16531 whole entry partner): as the sequence (Q16531 whole entry partner) above

SMILES | CK1α Ymin (CK1α) | DC50 (CK1α) [nM] | DC50 (GSPT1) [nM] | GSPT1 Ymin (GSPT1)
Cn1ncc(-c2ccc3c(c2)CN(C2CCC(=O)NC2=O)C3=O)c1-c1ccc(F)cc1C#N (stereo not drawn) [Example 438] | E (E = >25-75% remaining) | ≥ 25 | ≥ 25 | F (F = >75-100% remaining)
Cn1cnc(-c2ccc3c(c2)CN(C2CCC(=O)NC2=O)C3=O)c1-c1ccccc1N (stereo not drawn) [Example 440] | C (C = 0-10% remaining) | < 25 | < 25 | E (E = >25-75% remaining)
Cn1cnc(-c2ccc3c(c2)CN(C2CCC(=O)NC2=O)C3=O)c1-c1cccc(F)c1 (stereo not drawn) [Example 441] | C (C = 0-10% remaining) | < 25 | < 25 | E (E = >25-75% remaining)
Cc1cccc(C)c1-c1c(-c2ccc3c(c2)CN(C2CCC(=O)NC2=O)C3=O)ncn1C (stereo not drawn) [Example 442] | E (E = >25-75% remaining) | < 25 | ≥ 25 | F (F = >75-100% remaining)
Cn1cnc(-c2ccc3c(c2)CN(C2CCC(=O)NC2=O)C3=O)c1-c1ccc2c(c1)CCO2 (stereo not drawn) [Example 443] | C (C = 0-10% remaining) | < 25 | < 25 | E (E = >25-75% remaining)
Cn1cnc(-c2ccc3c(c2)CN(C2CCC(=O)NC2=O)C3=O)c1-c1ccc(-n2cccn2)cc1 (stereo not drawn) [Example 444] | C (C = 0-10% remaining) | < 25 | < 25 | E (E = >25-75% remaining)
Cn1cnc(-c2ccc3c(c2)CN(C2CCC(=O)NC2=O)C3=O)c1-c1ccc(F)cc1C(F)(F)F (stereo not drawn) [Example 445] | E (E = >25-75% remaining) | < 25 | ≥ 25 | F (F = >75-100% remaining)
COc1ccc2cc(-c3c(-c4ccc5c(c4)CN(C4CCC(=O)NC4=O)C5=O)ncn3C)ccc2c1 (stereo not drawn) [Example 446] | D (D = >10- 25% remaining) | < 25 | < 25 | F (F = >75-100% remaining)
Cn1cnc(-c2ccc3c(c2)CN(C2CCC(=O)NC2=O)C3=O)c1-c1ccc(C(=O)Nc2ccccn2)cc1 (stereo not drawn) [Example 447] | D (D = >10- 25% remaining) | ≥ 25 | ≥ 25 | F (F = >75-100% remaining)
Cn1cnc(-c2ccc3c(c2)CN(C2CCC(=O)NC2=O)C3=O)c1-c1ccc(S(=O)(=O)NC2CCCCC2)cc1 (stereo not drawn) [Example 448] | D (D = >10- 25% remaining) | ≥ 25 | ≥ 25 | F (F = >75-100% remaining)
CN1CCN(S(=O)(=O)c2ccc(-c3c(-c4ccc5c(c4)CN(C4CCC(=O)NC4=O)C5=O)ncn3C)cc2)CC1 (stereo not drawn) [Example 449] | E (E = >25-75% remaining) | ≥ 25 | ≥ 25 | F (F = >75-100% remaining)
Cn1ncc(-c2ccc3c(c2)CN(C2CCC(=O)NC2=O)C3=O)c1-c1ccnnc1 (stereo not drawn) [Example 450] | F (F = >75-100% remaining) | ≥ 25 | ≥ 25 | F (F = >75-100% remaining)
Cn1nccc1-c1c(-c2ccc3c(c2)CN(C2CCC(=O)NC2=O)C3=O)cnn1C (stereo not drawn) [Example 451] | E (E = >25-75% remaining) | ≥ 25 | ≥ 25 | F (F = >75-100% remaining)
Cc1oncc1-c1c(-c2ccc3c(c2)CN(C2CCC(=O)NC2=O)C3=O)cnn1C (stereo not drawn) [Example 452] | E (E = >25-75% remaining) | < 25 | ≥ 25 | F (F = >75-100% remaining)
Cn1ncc(-c2ccc3c(c2)CN(C2CCC(=O)NC2=O)C3=O)c1-c1cccnc1N (stereo not drawn) [Example 453] | E (E = >25-75% remaining) | < 25 | ≥ 25 | F (F = >75-100% remaining)
Cc1cc(-c2c(-c3ccc4c(c3)CN(C3CCC(=O)NC3=O)C4=O)cnn2C)n(C)n1 (stereo not drawn) [Example 454] | F (F = >75-100% remaining) | ≥ 25 | ≥ 25 | F (F = >75-100% remaining)
Cn1ncc(-c2ccc3c(c2)CN(C2CCC(=O)NC2=O)C3=O)c1-c1cccc(C#N)n1 (stereo not drawn) [Example 455] | E (E = >25-75% remaining) | ≥ 25 | ≥ 25 | F (F = >75-100% remaining)
COc1cncc(-c2c(-c3ccc4c(c3)CN(C3CCC(=O)NC3=O)C4=O)cnn2C)c1 (stereo not drawn) [Example 456] | E (E = >25-75% remaining) | ≥ 25 | ≥ 25 | F (F = >75-100% remaining)

Second part, the compound after the results:

CK1α Ymin (CK1α) | DC50 (CK1α) [nM] | DC50 (GSPT1) [nM] | GSPT1 Ymin (GSPT1) | SMILES
C (C = 0-10% remaining) | < 25 | ≥ 25 | F (F = >75-100% remaining) | O=C1CCC(N2Cc3cc(-c4cn(CC(F)(F)F)nc4-c4ccccc4)ccc3C2=O)C(=O)N1 (stereo not drawn) [Example 427, 3-(1-oxo-5-(3-phenyl-1-(2,2,2-trifluoroethyl)-1H-pyrazol-4-yl)isoindolin-2-yl)piperidine-2,6-dione]
C (C = 0-10% remaining) | < 25 | ≥ 25 | F (F = >75-100% remaining) | Cn1ncc(-c2ccc3c(c2)CN(C2CCC(=O)NC2=O)C3=O)c1-c1ccc2c(c1)OC(F)(F)O2 (stereo not drawn) [Example 428, 3-(5-(5-(2,2-difluorobenzo[d][1,3]dioxol-5-yl)-1-methyl-1H-pyrazol-4-yl)-1-oxoisoindolin-2-yl)piperidine-2,6-dione]
D (D = >10- 25% remaining) | < 25 | < 25 | F (F = >75-100% remaining) | CCn1ncc(-c2ccc3c(c2)CN(C2CCC(=O)NC2=O)C3=O)c1-c1ccccc1 (stereo not drawn) [Example 429, 3-(5-(1-ethyl-5-phenyl-1H-pyrazol-4-yl)-1-oxoisoindolin-2-yl)piperidine-2,6-dione]
D (D = >10- 25% remaining) | < 25 | ≥ 25 | F (F = >75-100% remaining) | O=C1CCC(N2Cc3cc(-c4cnn(CC(F)F)c4-c4ccccc4)ccc3C2=O)C(=O)N1 (stereo not drawn) [Example 430, 3-(5-(1-(2,2-difluoroethyl)-5-phenyl-1H-pyrazol-4-yl)-1-oxoisoindolin-2-yl)piperidine-2,6-dione]
C (C = 0-10% remaining) | < 25 | ≥ 25 | F (F = >75-100% remaining) | [2H]C([2H])([2H])n1ncc(-c2ccc3c(c2)CN(C2CCC(=O)NC2=O)C3=O)c1-c1ccc(OC)c(F)c1 (stereo not drawn) [Example 431, 3-(5-(5-(3-fluoro-4-methoxyphenyl)-1-(methyl-d3)-1H-pyrazol-4-yl)-1-oxoisoindolin-2-yl)piperidine-2,6-dione]
C (C = 0-10% remaining) | < 25 | ≥ 25 | F (F = >75-100% remaining) | [2H]C([2H])([2H])n1ncc(-c2ccc3c(c2)CN(C2CCC(=O)NC2=O)C3=O)c1-c1ccc2c(c1)CCO2 (stereo not drawn) [Example 432, 3-(5-(5-(2,3-dihydrobenzofuran-5-yl)-1-(methyl-d3)-1H-pyrazol-4-yl)-1-oxoisoindolin-2-yl)piperidine-2,6-dione]
C (C = 0-10% remaining) | < 25 | ≥ 25 | F (F = >75-100% remaining) | [2H]C([2H])([2H])n1ncc(-c2ccc3c(c2)CN(C2CCC(=O)NC2=O)C3=O)c1-c1ccc(OC)cc1 (stereo not drawn) [Example 433, 3-(5-(5-(4-methoxyphenyl)-1-(methyl-d3)-1H-pyrazol-4-yl)-1-oxoisoindolin-2-yl) piperidine-2,6-dione]
C (C = 0-10% remaining) | < 25 | ≥ 25 | F (F = >75-100% remaining) | [2H]C([2H])([2H])n1ncc(-c2ccc3c(c2)CN(C2CCC(=O)NC2=O)C3=O)c1-c1ccc(OC)cc1Cl (stereo not drawn) [Example 434, 3-(5-(5-(2-chloro-4-methoxyphenyl)-1-(methyl-d3)-1H-pyrazol-4-yl)-1-oxoisoindolin-2-yl)piperidine-2,6-dione]
E (E = >25-75% remaining) | < 25 | < 25 | F (F = >75-100% remaining) | [2H]C([2H])([2H])n1ncc(-c2ccc3c(c2)CN(C2CCC(=O)NC2=O)C3=O)c1-c1ccc(OC(F)(F)F)cc1 (stereo not drawn) [Example 435, 3-(5-(1-(methyl-d3)-5-(4-(trifluoromethoxy)phenyl)-1H-pyrazol-4-yl)-1-oxoisoindolin-2-yl) piperidine-2,6-dione]
D (D = >10- 25% remaining) | < 25 | ≥ 25 | F (F = >75-100% remaining) | [2H]C([2H])([2H])n1ncc(-c2ccc3c(c2)CN(C2CCC(=O)NC2=O)C3=O)c1-c1ccc(OC(F)F)cc1 (stereo not drawn) [Example 436, 3-(5-(5-(4-(difluoromethoxy)phenyl)-1-(methyl-d3)-1H-pyrazol-4-yl)-1-oxoisoindolin-2-yl)piperidine-2,6-dione]
C (C = 0-10% remaining) | < 25 | < 25 | F (F = >75-100% remaining) | [2H]C([2H])([2H])n1cc(-c2ccc3c(c2)CN(C2CCC(=O)NC2=O)C3=O)nc1-c1ccccc1 (stereo not drawn) [Example 437, 3-(5-(1-(methyl-d3)-2-phenyl-1H-imidazol-4-yl)-1-oxoisoindolin-2-yl)piperidine-2,6-dione]
C (C = 0-10% remaining) | < 25 | < 25 | E (E = >25-75% remaining) | Cn1cnc(-c2ccc3c(c2)CN(C2CCC(=O)NC2=O)C3=O)c1-c1ccc(N)cc1 (stereo not drawn) [Example 439]
